Literature values in patent US20150290251A1, “USE OF EGGSHELL MEMBRANE FORMULATIONS TO ALLEVIATE JOINT PAIN” (U.S. NUTRACEUTICALS, LLC d/b/a Valensa International, priority 2009, published 2015).

Assays:
C-Reactive Protein (CRP) = details: human subjects with high risk levels of CRP; three months of treatment
[1] = human trials; 4 mgs/day; compared to untreated subjects
lens epithelial cells = details: in vitro lens epithelial cells; umol/L concentrations
[2] = tested on: cellular membrane lipid peroxidation
[3] = compared with alpha-tocopherol
NO, PGE-2 and TNF-Alpha = details: induced uveitis; suppression of NO, PGE-2 and TNF-Alpha by directly blocking NO synthase activity

In the case of `CC1=C(/C=C/C(C)=C/C=C/C(C)=C/C=C/C=C(C)/C=C/C=C(C)/C=C/C2=C(C)C(=O)C(O)CC2(C)C)C(C)(C)CC(O)C1=O` (stereo not drawn) [Astaxanthin, 3,3′-dihydroxy-β, β-carotene-4, 4′dione], the “patients whose serum CRP levels dropped below the risk level” value (C-Reactive Protein (CRP)) is listed as 43 % of patients, the “prevention of joint pain following strenuous knee exercise” value [1] is listed as “completely prevented” and the “suppression of UVB induced lipid peroxidative mediated cell damage” value (lens epithelial cells) is listed as “dramatically suppresses”. The “effect on pro-oxidant activity of Vioxx” value [2] was “completely negates”, the “ability to quench singlet oxygen relative to alpha-tocopherol” value [3] was “over five hundred times” and the ocular anti-inflammatory activity (NO, PGE-2 and TNF-Alpha) was “dose dependent ocular anti-inflammatory activity”.
